Experimental data taken from ChEMBL document CHEMBL1157672, “Detection of multiple network-based allosteric interactions between peptides and arrays of DNA binding sites” (Bioorg Med Chem, 2010).
Values belong to the compound of their own block, whether it stands above or below them. Activity calls are given as the source filed them. The rule behind the calls is not given here.

What was measured:
Type in all cases: nucleic-acid assay
Nucleic Acid [1] = test: Binding affinity to 5'-AGAAAATAC-3' sequence of Escherichia coli 158-mer duplex pBR322 fragment at 10 to 2000 nM after 60 mins by DNase I footprinting
Nucleic Acid [2] = test: Binding affinity to 5'-AATAC-3' sequence of Escherichia coli 158-mer duplex pBR322 fragment at 10 to 2000 nM after 60 mins by DNase I footprinting
Nucleic Acid [3] = test: Binding affinity to 5'-TTTCTCCT-3' sequence of Escherichia coli 135-mer duplex pBR322 fragment at 50 to 2000 nM after 60 mins by DNase I footprinting
Nucleic Acid [4] = test: Binding affinity to 5'-AGAAAATAC-3' sequence of Escherichia coli 158-mer duplex pBR322 fragment after 60 mins by DNase I footprinting
Nucleic Acid [5] = test: Binding affinity to 5'-AATAC-3' sequence of Escherichia coli 158-mer duplex pBR322 fragment after 60 mins by DNase I footprinting
Nucleic Acid [6] = test: Binding affinity to 5'-TTTCTCCT-3' sequence of Escherichia coli 135-mer duplex pBR322 fragment after 60 mins by DNase I footprinting
Nucleic Acid [7] = test: Binding affinity to 5'-AAAAT-3' sequence of Escherichia coli 81-mer duplex pBR322 fragment after 60 mins by DNase I footprinting
Nucleic Acid [8] = test: Binding affinity to 5'-TTTCT-3' sequence of Escherichia coli 81-mer duplex pBR322 fragment after 60 mins by DNase I footprinting
Nucleic Acid [9] = test: Binding affinity to d(AAAA)-d(TTTT) sequence of Escherichia coli 158-mer duplex pBR322 fragment assessed as allosteric interaction after 60 mins by DNase I footprinting
Nucleic Acid [10] = test: Binding affinity to d(AAA)-d(TTT) sequence of Escherichia coli 135-mer duplex pBR322 fragment assessed as allosteric interaction after 60 mins by DNase I footprinting
Nucleic Acid [11] = test: Binding affinity to 11-mer duplex 3A-3T DNA at 0.2 to 7 uM after 60 mins by circular dichroism spectroscopy
Nucleic Acid [12] = test: Binding affinity to 11-mer duplex 4A-4T DNA at 0.2 to 7 uM after 60 mins by circular dichroism spectroscopy
Nucleic Acid [13] = test: Binding affinity to 11-mer duplex 4A-4T DNA minor groove at peptide to duplex ratio of 2:1 after 60 mins by circular dichroism spectroscopy
Nucleic Acid [14] = test: Binding affinity to 11-mer duplex 3A-3T DNA minor groove at peptide to duplex ratio of 2:1 after 60 mins by circular dichroism spectroscopy
Nucleic Acid [15] = test: Binding affinity to 5'-AATACCG-3' sequence of Escherichia coli 158-mer duplex pBR322 fragment at 1 to 3000 nM after 60 mins by DNase I footprinting
Nucleic Acid [16] = test: Binding affinity to 5'-AGAAAATACCG-3' sequence of Escherichia coli 158-mer duplex pBR322 fragment at 1 to 3000 nM after 60 mins by DNase I footprinting
Nucleic Acid [17] = test: Binding affinity to 5'-TTT-3' sequence of Escherichia coli 135-mer duplex pBR322 fragment at 12 nM after 60 mins by DNase I footprinting
Nucleic Acid [18] = test: Binding affinity to 5'-TTTCTCC-3' sequence of Escherichia coli 135-mer duplex pBR322 fragment at 1 to 3000 nM after 60 mins by DNase I footprinting
Nucleic Acid [19] = test: Binding affinity to 5'-AATACCG-3' sequence of Escherichia coli 158-mer duplex pBR322 fragment after 60 mins by DNase I footprinting
Nucleic Acid [20] = test: Binding affinity to 5'-AGAAAATACCG-3' sequence of Escherichia coli 158-mer duplex pBR322 fragment after 60 mins by DNase I footprinting
Nucleic Acid [21] = test: Binding affinity to 5'-TTT-3' sequence of Escherichia coli 135-mer duplex pBR322 fragment after 60 mins by DNase I footprinting
Nucleic Acid [22] = test: Binding affinity to 5'-TTTCTCC-3' sequence of Escherichia coli 135-mer duplex pBR322 fragment after 60 mins by DNase I footprinting
Nucleic Acid [23] = test: Binding affinity to 5'-GAAAATA-3' sequence of Escherichia coli 158-mer duplex pBR322 fragment at 1 to 3000 nM after 60 mins by DNase I footprinting
Nucleic Acid [24] = test: Binding affinity to 5'-AATACC-3' sequence of Escherichia coli 158-mer duplex pBR322 fragment at 1 to 3000 nM after 60 mins by DNase I footprinting
Nucleic Acid [25] = test: Binding affinity to 5'-TTTTCTCCT-3' sequence of Escherichia coli 135-mer duplex pBR322 fragment at 1 to 3000 nM after 60 mins by DNase I footprinting
Nucleic Acid [26] = test: Binding affinity to 5'-TT-3' sequence of Escherichia coli 135-mer duplex pBR322 fragment at 1 to 3000 nM after 60 mins by DNase I footprinting
Nucleic Acid [27] = test: Binding affinity to 5'-GAAAATA-3' sequence of Escherichia coli 158-mer duplex pBR322 fragment after 60 mins by DNase I footprinting
Nucleic Acid [28] = test: Binding affinity to 5'-AATACC-3' sequence of Escherichia coli 158-mer duplex pBR322 fragment after 60 mins by DNase I footprinting
Nucleic Acid [29] = test: Binding affinity to 5'-TTTTCTCCT-3' sequence of Escherichia coli 135-mer duplex pBR322 fragment after 60 mins by DNase I footprinting
Nucleic Acid [30] = test: Binding affinity to 5'-TT-3' sequence of Escherichia coli 135-mer duplex pBR322 fragment after 60 mins by DNase I footprinting
Nucleic Acid [31] = test: Binding affinity to 5'-TTTTCTC-3' sequence of Escherichia coli 81-mer duplex pBR322 fragment after 60 mins by DNase I footprinting
Nucleic Acid [32] = test: Binding affinity to 11-mer duplex 4A-4T DNA after 60 mins by circular dichroism spectroscopy
Nucleic Acid [33] = test: Binding affinity to 11-mer duplex 4A-4T DNA at 0.2 uM after 60 mins by circular dichroism spectroscopy
Nucleic Acid [34] = test: Binding affinity to 5'-TT-3' sequence of Escherichia coli 135-mer duplex pBR322 fragment at 50 to 2000 nM after 60 mins by DNase I footprinting

- Activity (Nucleic Acid [1]): Active
- Activity (Nucleic Acid [2]): Active
- Activity (Nucleic Acid [3]): Active
- Ka (Nucleic Acid [4]): 3.4 ×10⁶ /M
- Ka (Nucleic Acid [5]): 2.5 ×10⁶ /M
- Ka (Nucleic Acid [6]): 3.4 ×10⁶ /M
- Ka (Nucleic Acid [7]): 1.4 ×10⁶ /M
- Ka (Nucleic Acid [8]): 2.5 ×10⁶ /M
- Activity (Nucleic Acid [9]): Active
- Activity (Nucleic Acid [10]): Active
- Activity (Nucleic Acid [11]): Active
- Activity (Nucleic Acid [12]): Active
- Activity (Nucleic Acid [13]): Active
- Activity (Nucleic Acid [14]): Active
SMILES: Cn1cc(NC(=O)c2cc(NC(=O)[C@@H](CCCCN)NC(=O)[C@H](CCCNC(=N)N)NC(=O)[C@@H]3C[C@@H](O)CN3C(=O)[C@@H](N)Cc3cnc[nH]3)cn2C)cc1C(=O)Nc1cc(C(=O)Nc2cc(C(=O)N[C@@H](Cc3cnc[nH]3)C(=O)N3C[C@H](O)C[C@H]3C(=O)N[C@@H](CCCNC(=N)N)C(=O)N[C@@H](CCCCN)C(N)=O)n(C)c2)n(C)c1

- Activity (Nucleic Acid [15]): Active
- Activity (Nucleic Acid [16]): Active
- Activity (Nucleic Acid [17]): Active
- Activity (Nucleic Acid [18]): Active
- Ka (Nucleic Acid [19]): 6.7 ×10⁷ /M
- Ka (Nucleic Acid [20]): 3.2 ×10⁶ /M
- Ka (Nucleic Acid [21]): 3.7 ×10⁶ /M
- Ka (Nucleic Acid [22]): 3.8 ×10⁶ /M
- Activity (Nucleic Acid [9]): Active
- Activity (Nucleic Acid [10]): Active
SMILES: Cn1cc(NC(=O)c2cc(NC(=O)[C@@H](CCCCN)NC(=O)[C@H](CCCNC(=N)N)NC(=O)[C@@H]3CCCN3C(=O)[C@@H](N)Cc3cnc[nH]3)cn2C)cc1C(=O)Nc1cc(C(=O)Nc2cc(C(=O)N[C@@H](Cc3cnc[nH]3)C(=O)N3CCC[C@H]3C(=O)N[C@@H](CCCNC(=N)N)C(=O)N[C@@H](CCCCN)C(N)=O)n(C)c2)n(C)c1

- Activity (Nucleic Acid [23]): Active
- Activity (Nucleic Acid [24]): Active
- Activity (Nucleic Acid [25]): Active
- Activity (Nucleic Acid [26]): Active
- Ka (Nucleic Acid [27]): 3.8 ×10⁶ /M
- Ka (Nucleic Acid [28]): 2.5 ×10⁶ /M
- Ka (Nucleic Acid [29]): 2.2 ×10⁶ /M
- Ka (Nucleic Acid [30]): 2.7 ×10⁶ /M
- Ka (Nucleic Acid [7]): 2.1 ×10⁶ /M
- Ka (Nucleic Acid [31]): 1.9 ×10⁶ /M
- Activity (Nucleic Acid [9]): Active
- Activity (Nucleic Acid [10]): Active
- Activity (Nucleic Acid [32]): Dose-dependent effect
- Activity (Nucleic Acid [33]): Active
- Activity (Nucleic Acid [11]): Active
- Activity (Nucleic Acid [13]): Active
- Activity (Nucleic Acid [14]): Active
- Activity (Nucleic Acid [34]): inactive
SMILES: Cn1cc(NC(=O)c2cc(NC(=O)[C@@H](CCCCN)NC(=O)[C@H](CCCNC(=N)N)NC(=O)[C@@H]3C[C@@H](O)CN3C(=O)[C@@H](N)Cc3cnc[nH]3)cn2C)cc1C(=O)Nc1cc(C(=O)N[C@@H](CCCCN)C(=O)N[C@@H](CCCNC(=N)N)C(N)=O)n(C)c1
